Key:
Assay in all cases: relative viability (nuclei count vs DMSO), 5 days (fraction); higher = more cells survive
FG-4592 + Pictilisib = compound: Cc1nc(C(=O)NCC(=O)O)c(O)c2ccc(Oc3ccccc3)cc12 [FG-4592] + CS(=O)(=O)N1CCN(Cc2cc3nc(-c4cccc5[nH]ncc45)nc(N4CCOCC4)c3s2)CC1 [Pictilisib] (partner 1 µM)
In short: (§1)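 Relative viability is defined as nuclei in treated wells over nuclei in vehicle wells. Duplicate plates were run and medians reported. Lung cancer cell lines in 1536-well plates were dosed by pin tool one day after seeding, with one drug or with a fixed anchor-drug dose plus five library-drug doses (not always all listed) in √10 steps, and nuclei were counted after 5 days.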

IU1-47 + Luminespib = compound: CC1=CC(=C(N1C2=CC=C(C=C2)Cl)C)C(=O)CN3CCCCC3 [IU1-47] + CCNC(=O)c1noc(-c2cc(C(C)C)c(O)cc2O)c1-c1ccc(CN2CCOCC2)cc1 [Luminespib] (partner 0.01 µM)
In short: as §1

IU1-47 + Trametinib = compound: CC1=CC(=C(N1C2=CC=C(C=C2)Cl)C)C(=O)CN3CCCCC3 [IU1-47] + CC(=O)Nc1cccc(-n2c(=O)n(C3CC3)c(=O)c3c(Nc4ccc(I)cc4F)n(C)c(=O)c(C)c32)c1 [Trametinib] (partner 0.02 µM)
In short: as §1

FG-4592 + Olaparib = compound: Cc1nc(C(=O)NCC(=O)O)c(O)c2ccc(Oc3ccccc3)cc12 [FG-4592] + O=C(c1cc(Cc2n[nH]c(=O)c3ccccc23)ccc1F)N1CCN(C(=O)C2CC2)CC1 [Olaparib] (partner 8 µM)
In short: as §1

Cell Line	relative viability (FG-4592 + Pictilisib; first compound 0.08 µM)	relative viability (FG-4592 + Pictilisib; first compound 0.253 µM)	relative viability (FG-4592 + Pictilisib; first compound 0.8 µM)	relative viability (FG-4592 + Pictilisib; first compound 2.53 µM)	relative viability (FG-4592 + Pictilisib; first compound 8 µM)	relative viability (IU1-47 + Luminespib; first compound 0.08 µM)	relative viability (IU1-47 + Luminespib; first compound 0.253 µM)	relative viability (IU1-47 + Luminespib; first compound 0.8 µM)	relative viability (IU1-47 + Luminespib; first compound 2.53 µM)	relative viability (IU1-47 + Luminespib; first compound 8 µM)	relative viability (IU1-47 + Trametinib; first compound 0.08 µM)	relative viability (IU1-47 + Trametinib; first compound 0.253 µM)	relative viability (IU1-47 + Trametinib; first compound 0.8 µM)	relative viability (IU1-47 + Trametinib; first compound 2.53 µM)	relative viability (IU1-47 + Trametinib; first compound 8 µM)	relative viability (FG-4592 + Olaparib; first compound 0.08 µM)	relative viability (FG-4592 + Olaparib; first compound 0.253 µM)	relative viability (FG-4592 + Olaparib; first compound 0.8 µM)	relative viability (FG-4592 + Olaparib; first compound 2.53 µM)	relative viability (FG-4592 + Olaparib; first compound 8 µM)
NCI-H358	0.323	0.344	0.289	0.292	0.326	0.366	0.328	0.347	0.3	0.349	0.129	0.13	0.128	0.135	0.121	0.55	0.552	0.662	0.579	0.695
NCI-H441	0.585	0.524	0.509	0.483	0.464	0.328	0.336	0.478	0.379	0.343	0.37	0.338	0.395	0.595	0.439	0.431	0.462	0.49	0.502	0.493
NCI-H460	0.236	0.367	0.314	0.466	0.381	0.0244	0.0322	0.0367	0.0341	0.0295	0.134	0.127	0.2	0.129	0.18	0.445	0.449	0.462	0.51	0.43
NCI-H520	0.269	0.293	0.225	0.291	0.258	0.259	0.238	0.248	0.285	0.248	0.661	0.671	0.821	0.456	0.633	0.361	0.342	0.303	0.391	0.385
NCI-H596	0.337	0.359	–	0.377	0.433	0.926	1.05	1	1.12	0.752	0.765	–	0.779	0.834	0.677	0.663	0.641	–	0.708	0.625
NCI-H647	–	0.395	–	0.452	0.53	0.409	0.276	0.125	0.221	0.176	0.459	0.432	0.489	0.405	0.443	0.597	0.533	0.489	0.635	0.416
NCI-H650	0.879	0.916	0.739	0.801	0.872	0.849	0.81	0.831	0.671	0.828	0.96	0.958	0.863	0.91	1.06	0.343	0.32	0.44	0.364	0.354
NCI-H661	0.29	–	0.431	0.473	0.371	0.901	0.936	1.01	0.924	0.877	0.576	0.57	0.576	0.464	0.471	0.708	0.727	0.822	0.757	0.816
NCI-H727	0.311	0.274	0.307	0.335	0.452	0.356	0.241	0.803	0.365	0.293	0.438	0.349	0.369	0.375	0.368	0.698	0.782	0.752	0.681	0.672
NCI-H838	0.481	0.396	0.363	0.494	0.433	0.31	0.347	0.262	0.243	0.282	0.521	0.472	0.581	0.501	0.53	0.796	0.71	0.796	0.756	0.806
NCI-H1355	0.389	0.393	–	0.379	0.366	0.773	0.721	0.735	–	0.64	0.432	0.441	0.386	–	0.35	0.803	0.66	–	0.759	0.719
NCI-H1395	0.747	0.622	–	0.776	0.531	0.678	0.715	0.547	0.597	0.813	1.16	1.13	1.06	0.914	0.803	0.526	0.488	0.471	0.48	0.385
NCI-H1437	0.447	0.437	0.337	0.37	0.269	1.2	1.1	1.21	1.11	1.1	0.48	0.485	0.556	0.391	0.496	0.581	0.602	0.679	0.651	0.6
NCI-H1650	0.428	0.549	0.44	0.586	0.617	0.169	0.201	0.18	0.175	0.221	0.515	0.766	0.612	0.62	0.459	0.786	0.721	0.843	0.781	0.869
NCI-H1651	0.541	0.575	0.534	0.635	0.454	0.876	0.85	0.924	0.974	0.819	0.885	0.856	0.806	0.824	0.811	0.182	0.175	0.196	0.17	0.176
NCI-H1666	0.41	0.341	0.42	0.486	0.321	1.08	1.02	0.938	0.942	0.854	1	0.871	0.851	0.916	0.901	0.764	0.744	0.809	0.796	0.779

Reference: the supplement of paper PMC10307832
